# Experimental data as given in US20240287048A1, “SUBSTITUTED ACYL SULFONAMIDES FOR TREATING CANCER” (The Broad Institute, Inc., priority 2020, published 2024).
# Columns and labels:
# MDA-MB-436 cells = assay: Proliferation assay in MDA-MB-436 cells (negative control cell line); type: cell-based; conditions: Homo sapiens, 144 h, Alamar Blue, read-out: MDA-MB-436 proliferation assay, EC50[M] (arithmetic mean)
# Description: (§1) For compound characterization cell survival assays were routinely run in two cell lines. ZR-75-1 is a breast carcinoma cell line containing a focal KAT6A amplification and high KAT6A protein expression. Proliferation of this cell line is inhibited upon treatment with KAT6A inhibitors. As a negative control cell line MDA-MB-436 were used. These cells carry a […] deletion of the KAT6A gene, have a low KAT6A protein expression and are not growth inhibited upon treatment with KAT6A inhibitors.
# (§2) For measurements cell lines were plated at the below indicated concentration per […] in 96-well plates in a humidified incubator at 37° C. and 5% CO2.
# (§3) ZR-75-1 (ATCC, CRL-1500; breast carcinoma); 3000 cells per well; culture medium: RPMI 1640 (Biochrom #FG 1215) medium containing 2.5% FBS (Biochrom #S0615). LCLC-97TM1 (DSMZ, ACC 388; large cell lung carcinoma); 6000 cells per well; culture medium: RPMI 1640 (Biochrom #FG 1215) medium containing 2.5% FBS (Biochrom #S0615). MDA-MB-436 (CLS, 300278; breast adenocarcinoma); 3000 cells per well; culture medium: DMEM/Ham's F12 (Biochrom #FG 4815) medium containing 2.5% FBS (Biochrom #S0615).
# (§4) Each sample was prepared as triplicate and rim wells were excluded. Plates were incubated at 37° C. and 5% CO2 for 144 h. Cell viability was measured by adding 10 μL of Alamar Blue Reagent (Invitrogen #DAL 1100) and plates were incubated for 2 h at 37° C. and 5% CO2. Fluorescence was measured at 590 nm wavelength with a Tecan Spark or Victor X3 MTP-Reader (PerkinElmer).
# ZR-75-1 cells = assay: Proliferation assay in ZR-75-1 cells; type: cell-based; conditions: Homo sapiens, 144 h, Alamar Blue, read-out: ZR75-1 proliferation assay, EC50[M] (arithmetic mean)
# Description: as §1, §2, §3, §4
# KAT6B = biological target: T1, KAT6B (Homo sapiens, UniProt Q8WYB5); assay: Kat6b activity assay (TR-FRET, acetylation of biotinylated histone H4 peptide); type: biochemical; conditions: recombinant human GST-tagged Kat6b (431-end), 30 mins at 22° C., read-out: KAT6B activity assay IC50 [mol/l] (arithmetic mean)
# T1 construct: fused on or other part: N-terminal GST tag
# Description: Kat6b inhibitory activities of the compounds described in the present invention were quantified using a Fluorescence Resonance Energy Transfer (TR-FRET) assay which measures acetylation of a synthetic, biotinylated Histone-H4-derived peptide by the enzyme.
# Recombinant human GST-tagged Kat6b protein (431-end, N-terminal GST-tag), purified from Baculovirus-infected insect cells (Sf9), was purchased from SignalChem (#K315-381BG). Histone H4 peptide (amino acids 1-24, […]-VLRD-K(Btn)-amide), which was used as substrate, was synthesized by Biosyntan GmbH, Berlin, Germany. Acetyl Coenzyme A was purchased from Sigma-Aldrich (#A-2056).
# (§5) Kat6b was incubated for 30 mins at 22° C. in the presence of different concentrations of test substances (0 μM, and within the range 0.01-20 μM) in assay buffer [25 mM Tris/HCl pH 8, 1 mM EGTA, 2.5 mM Glutathion, 0.02% Chicken Albumin, 0.05% Pluronic F127, 25 mM NaCl, 500 nM H4 peptide and 600 nM Acetyl Coenzyme A].
# The reaction was stopped by addition of Detection Solution (25 mM HEPES pH 7.5, 0.1% BSA, 22 nM SAXL665 (Cisbio #610SAXLE), 100 μM Anacardic Acid (Enzo #ALX-270-381), 1 nM Anti-Histone H4 (ACETYL K8) Antibody (ABCAM #AB15823), 0.5 nM Anti-Rabbit IgG Eu (Perkin Elmer #AD0083).
# (§6) The fluorescence emission at 620 nm and 665 nm after excitation at 330-350 nm was measured in a TR-FRET measuring instrument, for instance a Rubystar or a Pherastar (both from BMG Lab Technologies, Offenburg, Germany) or a Viewlux (Perkin-Elmer). The ratio of the emission at 665 nm and at […] was used as indicator of the amount of acetylated peptide.
# (§7) The resulting data (ratio) were normalized, taking 0% inhibition as the mean value of control measurements where all reagents were included. In this case 50 nl DMSO were used instead of compounds. […] IC50 values were determined by regression analysis based on a 4 parameter equation (minimum, maximum, ICM, Hill; Y=Max+(Min−Max)/(1+(X/ICso) Hill) using the Screener Software (Genedata).
# [1] = test system: ESR1 transcription in MVLN cells; assay: Repression of ESR1 transcription, MVLN luciferase reporter assay; type: cell-based; conditions: Homo sapiens, luciferase signal after 24 h, read-out: MVLN reporter assay, IC50[M] (arithmetic mean)
# Description: KAT6A controls transcription of the ESR1 gene in breast cancer cells. Compound treatment that interferes with this mechanism was quantified using MVLN cells. These cells constitutively express the ER and are stably transfected with the luciferase (LUC) reporter gene and the corresponding hormone responsive element derived from the 5′-flanking region of the Xenopus Vitellogenin A2 gene (Pons et al., 1990, Demirpense et al., 1993, Joyeux et al., 1993). The repressive effect on ERα transcription activity of a test chemical is directly related to the luciferase measured in the lysate of treated MVLN cells.
# Each sample was prepared as duplicate and rim wells were excluded. For luciferase signal determination 100 μl of a 1:1 mixture of Steadylite plus (Perkin Elmer; 6016759) and assay medium was added after 24 h for 15 minutes and measured in Victor X3 (Perkin Elmer). To exclude any effects caused by cell loss during the treatment, cell density was determined using Alamar Blue (Invitrogen; DAL1100). Prior to the luciferase measurement 10 μl Alamar Blue were added to each well and the plates were incubated for 2 h in the incubator. Then fluorescence was measured with Victor X3 (Perkin Elmer) at 530 nm/590 nm.
# KAT6A = biological target: T2, KAT6A (Homo sapiens, UniProt Q92794); assay: Kat6a activity assay (TR-FRET, acetylation of biotinylated histone H4 peptide); type: biochemical; conditions: recombinant human His-tagged Kat6a (amino acids 194-810), 60 mins at 22° C., read-out: KAT6A-DPF/HAT domain IC50 [mol/l] (arithmetic mean)
# T2 construct: Recombinant human His-tagged Kat6a protein (amino acids 194-810); His; made in house; host or cells: Baculovirus-infected Sf9 insect cells
# Description: Kat6a inhibitory activities of the compounds described in the present invention were quantified using a Fluorescence Resonance Energy Transfer (TR-FRET) assay which measures acetylation of a synthetic, biotinylated Histone-H4-derived peptide by the enzyme.
# Recombinant human His-tagged Kat6a protein (amino acids 194-810), was purified in-house from Baculovirus-infected insect cells (Sf9). Histone H4 peptide (amino acids 1-24, […]-VLRD-K(Btn)-amide), which was used as substrate, was synthesized by Biosyntan GmbH, Berlin, Germany. Acetyl Coenzyme A was purchased from Sigma-Aldrich (#A-2056).
# as §5, with “Kat6a” for “Kat6b”, “60” for “30”, “220” for “500”
# The reaction was stopped by addition of Detection Solution (25 mM HEPES pH 7.5, 0.1% BSA, 22 nM SAXL665 (Cisbio #610SAXLE), 100 μM Anacardic Acid (Enzo #ALX-270-381), 1 nM Anti-Histone H4 (ACETYL K8) Antibody (ABCAM #AB15823) and 0.5 nM Anti-Rabbit IgG Eu (Perkin Elmer #AD0083).
# as §6, §7
# LCLC-97TM1 cells = assay: Proliferation assay in LCLC-97TM1 cells; type: cell-based; conditions: Homo sapiens, 144 h, Alamar Blue, read-out: LCLC97TM1 proliferation assay, EC50[M] (arithmetic mean)
# Procedure: as §2, §3, §4
# T2 sequence (Q92794 194-810): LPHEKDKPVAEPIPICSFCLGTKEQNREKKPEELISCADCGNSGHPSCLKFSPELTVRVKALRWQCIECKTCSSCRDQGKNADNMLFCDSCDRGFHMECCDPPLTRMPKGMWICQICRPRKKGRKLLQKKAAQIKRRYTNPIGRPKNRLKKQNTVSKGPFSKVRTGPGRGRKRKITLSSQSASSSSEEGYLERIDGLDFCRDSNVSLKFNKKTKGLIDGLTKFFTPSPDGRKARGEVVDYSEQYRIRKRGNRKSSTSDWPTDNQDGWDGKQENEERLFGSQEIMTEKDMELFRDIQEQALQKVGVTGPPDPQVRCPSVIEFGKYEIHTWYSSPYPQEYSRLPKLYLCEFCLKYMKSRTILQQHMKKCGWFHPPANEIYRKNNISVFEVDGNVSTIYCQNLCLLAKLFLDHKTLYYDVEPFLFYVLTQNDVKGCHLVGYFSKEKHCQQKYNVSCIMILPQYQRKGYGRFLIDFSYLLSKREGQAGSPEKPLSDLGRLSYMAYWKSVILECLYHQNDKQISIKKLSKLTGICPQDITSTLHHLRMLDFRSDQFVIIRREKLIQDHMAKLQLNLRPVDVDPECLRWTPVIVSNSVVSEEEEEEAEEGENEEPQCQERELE
# T1 sequence (Q8WYB5 723-2073 limits assumed): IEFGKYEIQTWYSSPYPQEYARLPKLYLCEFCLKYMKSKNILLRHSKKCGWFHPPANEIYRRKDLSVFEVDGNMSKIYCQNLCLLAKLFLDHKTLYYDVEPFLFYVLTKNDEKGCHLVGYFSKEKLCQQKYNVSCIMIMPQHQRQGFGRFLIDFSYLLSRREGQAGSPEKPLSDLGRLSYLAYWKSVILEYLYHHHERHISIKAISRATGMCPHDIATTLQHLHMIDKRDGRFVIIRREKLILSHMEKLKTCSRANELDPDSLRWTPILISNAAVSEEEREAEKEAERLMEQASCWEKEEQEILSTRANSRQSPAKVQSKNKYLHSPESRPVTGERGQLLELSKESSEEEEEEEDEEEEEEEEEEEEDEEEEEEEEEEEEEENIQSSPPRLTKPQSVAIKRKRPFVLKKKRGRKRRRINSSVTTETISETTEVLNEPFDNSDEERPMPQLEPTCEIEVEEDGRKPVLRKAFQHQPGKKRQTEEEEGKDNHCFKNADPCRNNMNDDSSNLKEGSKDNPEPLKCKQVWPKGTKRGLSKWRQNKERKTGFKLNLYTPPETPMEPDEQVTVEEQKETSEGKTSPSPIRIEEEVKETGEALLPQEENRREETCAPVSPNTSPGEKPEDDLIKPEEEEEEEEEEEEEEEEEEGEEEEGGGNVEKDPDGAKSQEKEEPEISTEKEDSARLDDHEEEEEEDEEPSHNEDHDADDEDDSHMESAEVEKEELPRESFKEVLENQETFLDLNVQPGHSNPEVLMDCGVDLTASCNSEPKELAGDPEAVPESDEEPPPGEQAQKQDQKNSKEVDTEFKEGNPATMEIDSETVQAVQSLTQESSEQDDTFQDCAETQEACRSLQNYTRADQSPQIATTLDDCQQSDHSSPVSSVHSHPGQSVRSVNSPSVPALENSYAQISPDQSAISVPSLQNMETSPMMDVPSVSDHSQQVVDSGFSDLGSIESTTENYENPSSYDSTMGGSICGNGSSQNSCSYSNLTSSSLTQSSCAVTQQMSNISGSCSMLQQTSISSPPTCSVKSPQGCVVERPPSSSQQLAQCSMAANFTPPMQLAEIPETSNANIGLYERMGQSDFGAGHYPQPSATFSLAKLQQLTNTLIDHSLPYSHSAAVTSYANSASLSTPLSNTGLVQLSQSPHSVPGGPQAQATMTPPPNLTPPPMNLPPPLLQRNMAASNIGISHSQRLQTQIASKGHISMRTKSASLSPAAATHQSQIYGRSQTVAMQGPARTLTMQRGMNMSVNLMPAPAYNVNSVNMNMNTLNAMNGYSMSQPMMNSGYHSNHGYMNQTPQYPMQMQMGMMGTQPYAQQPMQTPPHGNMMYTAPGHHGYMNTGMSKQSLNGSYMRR
SMILES,EC50 (MDA-MB-436 cells) [M],IC50 (KAT6B) [µM],IC50 [1] [M],IC50 (KAT6A) [µM],EC50 (ZR-75-1 cells) [M],EC50 (LCLC-97TM1 cells) [M]
"CCC(C)c1ccc2cc(C(=O)NS(=O)(=O)c3ccccc3-c3ccccc3)oc2c1 (centres unmarked) [Example 27, N-([1,1′-biphenyl]-2-sulfonyl)-6-(butan-2-yl)-1-benzofuran-2-carboxamide]",> 2e-05,9.21,> 2e-05,2.03,> 2e-05,–
"CCOc1ccc(C(C)CC)cc1S(=O)(=O)NC(=O)c1cc2c(F)cc(C3CC3)cc2o1 (centres unmarked) [Example 29, 6-Cyclopropyl-N-(2-ethoxy-5-sec-butyl-phenyl)sulfonyl-4-fluoro-benzofuran-2-carboxamide]",> 2e-05,–,7.41e-08,0.00184,8.86e-08,2.77e-07
"CN(C)c1cc(C2CC2)cc2oc(C(=O)NS(=O)(=O)c3ccccc3)cc12 [Example 42, N-(Benzenesulfonyl)-6-cyclopropyl-4-(dimethylamino)benzofuran-2-carboxamide]",> 2e-05,–,> 2e-05,0.417,> 2e-05,> 2e-05
"Cc1ccc2cccc(S(=O)(=O)NC(=O)c3cc4c(OC(F)F)cc(C5CC5)cc4o3)c2n1 [Example 47, 6-Cyclopropyl-4-(difluoromethoxy)-N-[(2-methyl-8-quinolyl)sulfonyl]benzofuran-2-carboxamide]",> 2e-05,–,4.65e-06,0.00478,3.24e-06,> 2e-05
"O=C(NS(=O)(=O)c1ccccc1-c1ccccc1)c1cc2ccc(C3CC3)c(F)c2o1 [Example 15, N-([1,1′-biphenyl]-2-sulfonyl)-6-cyclopropyl-7-fluoro-1-benzofuran-2-carboxamide]",> 2e-05,–,6.75e-06,0.908,8.42e-06,> 2e-05

# More lines, main results first:
EC50 (MDA-MB-436 cells) [M],IC50 (KAT6B) [µM],IC50 [1] [M],IC50 (KAT6A) [µM],SMILES,EC50 (ZR-75-1 cells) [M],EC50 (LCLC-97TM1 cells) [M]
–,0.019,2.47e-07,0.0141,"O=C(NS(=O)(=O)c1ccccc1OC1CC1)c1cc2c(F)cc(C3CC3)cc2o1 [Example 24, 6-Cyclopropyl-N-[2-(cyclopropyloxy)benzene-1-sulfonyl]-4-fluoro-1-benzofuran-2-carboxamide]",6.74e-07,–
–,2.85,1.56e-05,1.13,"COCCc1ccc2cc(C(=O)NS(=O)(=O)c3ccccc3-c3ccccc3)oc2c1 [Example 26, N-([1,1′-biphenyl]-2-sulfonyl)-6-(2-methoxyethyl)-1-benzofuran-2-carboxamide]",–,–
> 2e-05,2.58,–,1.3,"O=C(NS(=O)(=O)c1ccccc1-c1ccccc1)c1cc2ccc(C(F)F)cc2o1 [Example 17, N-([1,1′-Biphenyl]-2-sulfonyl)-6-(difluoromethyl)-1-benzofuran-2-carboxamide]",6.12e-06,–
–,0.0225,2.81e-07,0.00948,"Cc1ccc2cccc(S(=O)(=O)NC(=O)c3cc4c(F)cc(C5CC5)cc4o3)c2n1 [Example 22, 6-Cyclopropyl-4-fluoro-N-(2-methylquinoline-8-sulfonyl)-1-benzofuran-2-carboxamide]",1.26e-06,–
> 2e-05,–,1.16e-05,0.052,"CN(C)c1cc(C2CC2)cc2oc(C(=O)NS(=O)(=O)c3ccccc3-c3ccccc3)cc12 [Example 44, 6-Cyclopropyl-4-(dimethylamino)-N-(2-phenylphenyl)sulfonyl-benzofuran-2-carboxamide]",8.67e-06,> 2e-05
> 2e-05,–,4.11e-06,0.459,"Cc1ccc2c(C)c(C(=O)NS(=O)(=O)c3ccccc3-c3ccccc3)oc2c1 [Example 14, N-([1,1′-biphenyl]-2-sulfonyl)-3,6-dimethyl-1-benzofuran-2-carboxamide]",8.7e-06,9.97e-06
–,4.79,1.31e-05,3.38,"O=C(NS(=O)(=O)c1ccccc1-c1ccccc1)c1cc2ccc(-c3ccc(F)cc3)cc2o1 [Example 1, N-([1,1′-biphenyl]-2-sulfonyl)-6-(4-fluorophenyl)-1-benzofuran-2-carboxamide]",–,–
